Measurements published in patent US11339140B2, “Compositions and methods comprising substituted 2-aminoimidazoles” (Curza Global, LLC, priority 2017, dated 2022).
Converted amounts (≈) assume the structure as drawn.

Legend:
Candida albicans = conditions: cited from earlier work
[1] = test system: Mycobacterium tuberculosis; conditions: cited from earlier work
breast cancer = assay: cancer-selective cell death with Zn2+; format: cell-based; conditions: caspase-independent mechanism
[2] = test system: primary metastatic cells derived from breast cancer patients; assay: activity against primary metastatic cells derived from breast cancer patients; format: cell-based, human; conditions: patients treated with multiple frontline chemotherapeutics
[3] = test system: mouse mammary tumor model; assay: mouse mammary tumor model; format: in vivo

| SMILES | MIC100 against Candida albicans (Candida albicans) [µM] | IC50 against Mycobacterium tuberculosis [1] [mg/L] | synergy with Zn2+ in inducing cancer-selective cell death (breast cancer) | efficacy against primary metastatic cells from breast cancer patients [2] | in vivo efficacy [3] |
| --- | --- | --- | --- | --- | --- |
| COc1ccc(Cc2nc(NC3=NC(=O)N(C)C3=O)n(C)c2Cc2ccc(O)cc2)cc1 [Naamidine A] | 0.78 (≈ 0.338 µg/mL) | 0.41 (≈ 0.946 µM) |  |  |  |
| COc1ccc(-c2c(Cc3ccccc3)[nH]/c(=N\C(=O)c3ccccc3F)n2C)cc1 [ZNA] |  |  | synergizes strongly with Zn^2+ to induce cancer-selective cell death | effective | in vivo efficacy was established |
